This note sets out measurements from PubChem BioAssay (NCI).

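Values below derive from 48-hour exposures of cells grown in 96-well plates, with endpoints linearly interpolated between the two concentrations bracketing the appropriate inhibition level. Here, GI50 denotes the concentration required for 50% inhibition of growth. TGI: total growth inhibition.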 A value given as a limit tells only on which side of the number the result lay.

Test systems include NCI-H226 lung; U251 CNS; SK-OV-3 ovarian; OVCAR-3 ovarian; SK-MEL-2 melanoma; TK-10 renal; UACC-257 melanoma; ACHN renal.
Common to all, as to assay: NCI-60 cell line screen, 48 h

As to `O=C1CN2Cc3cc(N4CCOCC4)ccc3N=C2N1`, the TGI in the test on NCI-H226 lung, with U251 CNS, in the test with SK-OV-3 ovarian, with OVCAR-3 ovarian, in the test with SK-MEL-2 melanoma and in the test on TK-10 renal was above 100 µM each time. The molecule further displayed a TGI in the test with UACC-257 melanoma above 100 µM.
In the case of `CCc1n[nH]c(=O)n1/N=C/c1ccccc1Cl`, the TGI with NCI-H226 lung, in the test with U251 CNS, in the test with SK-OV-3 ovarian, with OVCAR-3 ovarian, in the test on SK-MEL-2 melanoma and in the test with TK-10 renal was above 100 µM throughout. In addition, the TGI with UACC-257 melanoma and in the test with ACHN renal was above 100 µM each time.
For `CCCCC(=O)Nc1ccc2cc(C(=O)OC)c(ON3C(=O)c4ccccc4C3=O)nc2n1`, the TGI is 60.2 µM in the test on NCI-H226 lung; above 100 µM in the test on U251 CNS; above 100 µM with SK-OV-3 ovarian; above 100 µM in the test on OVCAR-3 ovarian; above 100 µM with SK-MEL-2 melanoma; 46.2 µM in the test with TK-10 renal. The TGI in the test with UACC-257 melanoma and in the test with ACHN renal was above 100 µM in each case.
With `O=[N+]([O-])c1cccc2nc3ccccc3c(NCCc3cccc[n+]3[O-])c12`, the TGI in the test with NCI-H226 lung worked out at 0.562 µM; in the test on U251 CNS it was 0.145 µM; with SK-OV-3 ovarian it was 0.979 µM; with OVCAR-3 ovarian it was 0.11 µM; with SK-MEL-2 melanoma, 0.528 µM; in the test on TK-10 renal it was 0.225 µM. Further, the values for the TGI with UACC-257 melanoma and in the test with ACHN renal were 0.0647 µM and 0.039 µM, respectively.
For `CC(C)C1(C)N=C(C(F)(F)F)c2cc(C(=O)C(F)(F)F)c3ccccc3c2N1` (configuration not stated), the TGI turned out to be 30.4 µM in the test with NCI-H226 lung; 11.1 µM in the test on U251 CNS; 30.2 µM in the test on SK-OV-3 ovarian; 10.6 µM in the test on OVCAR-3 ovarian; 6.99 µM with SK-MEL-2 melanoma; 15.5 µM in the test with TK-10 renal. Further, the TGI was determined as 19.5 µM in the test on UACC-257 melanoma and 12 µM in the test on ACHN renal.
In the case of `NCCCNc1nc2ccccc2c2c(=O)c3cc(C(F)(F)F)ccc3sc12`, in the test with SK-MEL-2 melanoma, the GI50 was 1.93 µM and the TGI came to 3.82 µM. In addition, in the test on ACHN renal, the GI50 is 1.59 µM and the TGI came out at 2.94 µM.
For the molecule `CCCCCCOc1ccc(C(=O)NOCc2ccccc2)cc1`, the TGI with NCI-H226 lung, in the test on U251 CNS, in the test on SK-OV-3 ovarian, in the test with OVCAR-3 ovarian, in the test on SK-MEL-2 melanoma and in the test with TK-10 renal was above 100 µM throughout. For the same molecule, the TGI in the test on UACC-257 melanoma and in the test with ACHN renal was above 100 µM throughout.
For `CCOC(=O)CCC(NC(=O)c1ccc(Oc2nc3ccc(C(F)(F)F)cc3nc2-c2ccccc2)cc1)C(=O)OCC` (configuration not stated), the TGI with NCI-H226 lung was 17.6 µM; with U251 CNS, above 100 µM; in the test on SK-OV-3 ovarian it was 37.9 µM; with OVCAR-3 ovarian, above 100 µM; in the test with SK-MEL-2 melanoma, above 65.8 µM; in the test with TK-10 renal, above 100 µM. In addition, the TGI in the test on UACC-257 melanoma and in the test with ACHN renal was above 100 µM throughout.
As for `CCOc1ccc(/C(O)=C/c2nc3ccccc3nc2/C=C(\O)c2ccc(OCC)cc2)cc1`, the TGI with NCI-H226 lung, with U251 CNS, with SK-OV-3 ovarian, with OVCAR-3 ovarian, in the test on SK-MEL-2 melanoma and in the test on TK-10 renal was above 100 µM in each case. In addition, the TGI in the test with UACC-257 melanoma and with ACHN renal was above 100 µM throughout.
As for `O=C1NC(Cc2c[nH]c3ccccc23)C(=O)N2C(C3CCCCC3)c3[nH]c4ccccc4c3C[C@@H]12` (some centres not stated), the TGI came out at 65.7 µM with NCI-H226 lung; 26 µM with U251 CNS; 6.58 µM with OVCAR-3 ovarian; 32.2 µM with SK-MEL-2 melanoma; 37.6 µM with TK-10 renal; 29 µM in the test with UACC-257 melanoma. Besides, the TGI in the test on ACHN renal was found to be 77.4 µM.
In the case of `Cc1cccc2c1Oc1ccccc1C2NC(=O)c1ccc([N+](=O)[O-])cc1` (configuration not stated), the TGI in the test on NCI-H226 lung was 63.9 µM; in the test with U251 CNS, above 100 µM; in the test with OVCAR-3 ovarian it was above 100 µM; with SK-MEL-2 melanoma it was above 100 µM; in the test with TK-10 renal, above 100 µM; with UACC-257 melanoma, above 100 µM. In addition, the TGI with ACHN renal was above 100 µM.
Take `O=C(CC(=O)N1N=C(N2CCCCC2)CC1c1ccccc1)Nc1ccc(Cl)cc1` (configuration not stated): the TGI in the test on NCI-H226 lung, in the test with U251 CNS, with OVCAR-3 ovarian, in the test with SK-MEL-2 melanoma, with TK-10 renal and with UACC-257 melanoma was above 100 µM each time. Besides, the TGI in the test with ACHN renal was above 100 µM.
For `Nc1c(-c2nc3ccccc3s2)c2ccc([N+](=O)[O-])cc2c(=O)n1-c1cccc(C(=O)O)c1`, the TGI was 71.5 µM with NCI-H226 lung; 56 µM in the test with U251 CNS; 75.4 µM in the test with SK-MEL-2 melanoma; 52.3 µM in the test on TK-10 renal; 61.9 µM in the test on UACC-257 melanoma; above 100 µM in the test on ACHN renal.
For `O=C(/C=C/c1ccc(Cl)cc1)Oc1ccc(/C=C2\CCCCC2=O)cc1`, the TGI in the test with U251 CNS, with OVCAR-3 ovarian, in the test on SK-MEL-2 melanoma, in the test on TK-10 renal, in the test with UACC-257 melanoma and in the test with ACHN renal was above 100 µM in each case.
For `O=C1Nc2cccc(Cl)c2/C1=C\c1c(Cl)nc2sccn12`, the TGI in the test on U251 CNS was 21.5 µM; with SK-OV-3 ovarian it was 31 µM; with OVCAR-3 ovarian, above 100 µM; in the test with SK-MEL-2 melanoma it was 30.2 µM; in the test on TK-10 renal it was 24.6 µM; with UACC-257 melanoma, above 100 µM. In the test on ACHN renal, the TGI was 29.4 µM.
For `COc1cc(C2c3cc4c(cc3OC(Nc3ccc(C(=O)O)cc3)C2C)OCO4)cc(OC)c1OC` (configuration not stated), the TGI in the test with U251 CNS was 30 µM; in the test on SK-MEL-2 melanoma it was above 59.9 µM; in the test on TK-10 renal it was above 100 µM; with UACC-257 melanoma, above 94.1 µM; in the test on ACHN renal, above 68.6 µM.
As to `CC1(C)CC(=O)C2=C(C1)c1c(ccc3ccccc13)NC2c1cn(Cc2ccc(Cl)cc2)c2ccccc12` (configuration not stated), the TGI with U251 CNS, in the test on SK-OV-3 ovarian, with OVCAR-3 ovarian, in the test on SK-MEL-2 melanoma, with TK-10 renal and in the test on UACC-257 melanoma was above 100 µM each time. In the test with ACHN renal, this molecule returned a TGI above 100 µM.
On to `CCCc1cc(=O)oc2c3c(c4c(c12)OC(C)(C)C=C4)O[C@@H](C)[C@H](C)C3=O`, for which the TGI in the test with NCI-H226 lung amounted to 41.6 µM; with U251 CNS it was 97.6 µM; in the test on OVCAR-3 ovarian it was 49.1 µM; in the test with TK-10 renal, 44.3 µM; in the test on UACC-257 melanoma, 37.3 µM; in the test on ACHN renal it was 24.9 µM.
As to `O=P(Oc1ccccc1)(Oc1ccccc1)Oc1c[nH]c2ccccc12`, the TGI in the test on NCI-H226 lung came to 31.3 µM; in the test with U251 CNS, 31.9 µM; in the test on SK-OV-3 ovarian, 18.3 µM; in the test with OVCAR-3 ovarian, 39.1 µM; in the test with SK-MEL-2 melanoma, 20.2 µM; in the test on TK-10 renal it was 28.3 µM. Moreover, the TGI with UACC-257 melanoma was found to be 21.8 µM.
Take `CON(C)C(C#N)=C(C#N)C#N`: the TGI in the test with NCI-H226 lung, in the test on U251 CNS, in the test on SK-OV-3 ovarian, in the test with OVCAR-3 ovarian, in the test with SK-MEL-2 melanoma and with TK-10 renal was above 10 µM in each case. This molecule also displayed a TGI in the test on ACHN renal above 10 µM.
Regarding `COC(=O)C1(Cc2ccc3c(c2)CCC3)Cc2ccc3c(c2C1O)CCC3` (configuration not stated), the TGI in the test on NCI-H226 lung was determined as 45 µM; in the test with U251 CNS it was 30.6 µM; with SK-OV-3 ovarian, 51.8 µM; in the test on OVCAR-3 ovarian, 27.7 µM; in the test on TK-10 renal it was 54.8 µM; in the test with UACC-257 melanoma, 26.1 µM. This molecule yielded a TGI in the test on ACHN renal of 26.7 µM.
Consider `O=c1oc2ccccc2c(O)c1C(c1ccco1)c1c(O)c2ccccc2oc1=O`, for which the TGI with NCI-H226 lung is above 100 µM; in the test with U251 CNS, 61.8 µM; in the test on OVCAR-3 ovarian, above 100 µM; with SK-MEL-2 melanoma it was above 100 µM; with TK-10 renal it was 80.2 µM; in the test with UACC-257 melanoma, 63.4 µM. Further, the TGI with ACHN renal is 55.8 µM.
`Cc1cccc2c1Oc1cc(Cl)ccc1C2NC(=O)CCN1CCN(CCO)CC1` (configuration not stated): the TGI was 29.3 µM with U251 CNS, above 100 µM in the test on SK-OV-3 ovarian, 34 µM with OVCAR-3 ovarian and 33.7 µM with UACC-257 melanoma.
On to `Cc1cn(C2CCC(/C=N\O)O2)c(=O)[nH]c1=O` (configuration not stated), for which the TGI in the test with NCI-H226 lung, in the test on U251 CNS, in the test with OVCAR-3 ovarian, in the test on SK-MEL-2 melanoma, in the test on UACC-257 melanoma and in the test with ACHN renal was above 100 µM in each case.
Take `CC(C)(C)c1ccc(-c2nc3ccc([N+](=O)[O-])cc3c(=O)o2)cc1`: the TGI was 43.4 µM in the test with U251 CNS; 95.7 µM with SK-OV-3 ovarian; 81.1 µM with OVCAR-3 ovarian; 47 µM in the test with SK-MEL-2 melanoma; above 100 µM in the test with TK-10 renal; 81.2 µM in the test on UACC-257 melanoma. Besides, in the test with ACHN renal, the TGI is 90.5 µM.
Consider `CC(OC(=O)NCn1cc(-c2ccccc2)nn1)c1ccccc1` (configuration not stated), for which the TGI in the test with NCI-H226 lung was 56.4 µM; with U251 CNS, above 100 µM; in the test with SK-MEL-2 melanoma it was above 100 µM; in the test on TK-10 renal, above 100 µM; with UACC-257 melanoma, above 100 µM; with ACHN renal it was above 100 µM.
Turning to `O=C1CCC[C@]2(CCC[C@@H](O)C2)N1`, the TGI in the test on SK-OV-3 ovarian, in the test with OVCAR-3 ovarian, with SK-MEL-2 melanoma, in the test with TK-10 renal, with UACC-257 melanoma and in the test with ACHN renal was above 100 µM in each case.
